Measurements: article PMC11299271 (BMC Pharmacology & Toxicology, 2024)
Several values for one entry are separate records, joined by “and”; a condition that tells them apart may be missing. Equal entries are not always repeated. Where two headings read alike, the source gives them in different places.

How the values were obtained:
[1] = Pharmacokinetic measurements in T2DM rats (plasma concentrations by UPLC-MS/MS, two-compartment PK model); format: in vivo; settings: for C5ohsax, observed plasma concentration: individual rats
Description: . Plasma was obtained by centrifugation at 3000 r/min and stored at −80 °C until analysis.
Plasma concentrations of analytes were determined using the UPLC-MS/MS method above. […].

[2] = Plasma glucose concentration in T2DM rats (glucose oxidase method); format: in vivo
Description: Glucose concentration in the plasma was determined by Glucose test kit (glucose oxidase method, Rongsheng biological Pharmaceutical Co.,Ltd, Shanghai, China). All the procedures were conducted according to manufacturers’ instructions. All test specimens (plasma samples, blank and calibration samples) were done in flat bottom 96 well microplates; 2.5 µL serum or calibration, 250 µL solution were pipetted into each well of the microplate, and the blank control contain water. The results were tested at 37 °C for 10 min and an absorbance value of 505 nm in a continuous monitoring micro plate reader. Glucose concentration (mmol/L) = (sample tube absorbent/calibration tube absorbent) × calibration fluid concentration (5.55 mmol/L). All experiments were repeated two duplicates.

[3] = Plasma insulin concentration in T2DM rats (Rat INS ELISA Kit); format: in vivo
Description: Insulin concentration in the plasma was determined by Rat INS ELISA Kit (Zeye Biotechnology Co., Ltd., Shanghai, China). All the procedures were conducted according to manufacturers’ instructions. Test specimens (plasma samples, blank and calibration samples) were added to an antibody-coated 96-well plate followed by addition of biological agent and enzyme conjugate solution, these mixtures incubated 30 min at 37 °C. The plate was then washed after incubation and a mixture of chromogenic reagent A and B was added. Optical density values at 450 nm were measured after terminating the reaction, and insulin concentrations were calculated according to the standard curve within a range of 0–20 mU/L (0, 1.25, 2.5, 5, 10, 20 mU/L).

[4] = Stability of analytes in QC rat plasma (UPLC-MS/MS); format: physicochemical; settings: for Stability, autosampler at 4 °C for up to 16 h (% of nominal): extracted plasma samples; for Stability, autosampler at 4 °C for up to 16 h (% of nominal) / Stability, 4 °C for 12 h (% of nominal) / Stability, freeze-thaw three cycles (% of nominal) / Stability, room temperature for 4 h (% of nominal) / Stability, −80 °C for 7 days (% of nominal): n = 3; for Stability, 4 °C for 12 h (% of nominal) / Stability, freeze-thaw three cycles (% of nominal) / Stability, room temperature for 4 h (% of nominal) / Stability, −80 °C for 7 days (% of nominal): rat plasma; for stability in plasma under storage conditions: room temperature (25 °C) 4 h, 4 °C 12 h, −80 °C 7 days, three freeze-thaw cycles, autosampler 4 °C up to 16 h
Description: The stability of analytes in QC plasma was evaluated by analyzing replicates (n = 3) of LQC, MQC, HQC samples placed on storage for 4 h at room temperature (25 °C), for 12 h at 4 °C, for 7 days at −80 °C, and after three freeze-thaw cycles from −80 °C to room temperature. […]

[5] = cited from earlier work
[6] = T2DM rats, i.g. 10 mg/kg SAX, two-compartment model with first order absorption, mean (n = 3)
[7] = i.g. 10 mg/kg SAX vs 0.5% CMC-Na
[8] = high QC: spiked 2000 ng/mL SAX, 400 ng/mL 5-OH SAX
[9] = low QC: spiked 15 ng/mL SAX, 3 ng/mL 5-OH SAX
[10] = T2DM rats, i.v. 0.5 mg/kg 5-OH SAX, Subject1, Subject2, Subject3, 0.5 mg/kg
[11] = T2DM rats, i.v. 0.5 mg/kg 5-OH SAX, two-compartment model, mean (n = 3)

Question: For `N#C[C@@H]1C[C@@H]2C[C@@H]2N1C(=O)[C@@H](N)C12CC3CC(CC(O)(C3)C1)C2` [SAX, Saxagliptin], which “CL2 (clearance rate of peripheral compartment)” value [1, 6] is on record?
Answer: 284.8403 mL/min/kg

Question: What about the “CL (clearance rate of central compartment)” value [1, 6] of the same molecule?
Answer: 54.0967 mL/min/kg

Question: What about the K12 [1, 6] of the same molecule?
Answer: 6.62 h⁻¹

Question: And the K21 [1, 6]?
Answer: 1.07 h⁻¹

Question: What about the “V2 (apparent distribution volume of peripheral compartment)” value [1, 6] of the same molecule?
Answer: 18.3933 L/kg

Question: And the “V (apparent distribution volume of central compartment)” value [1, 6]?
Answer: 2.30724 L/kg

Question: What about the Tmax ([1]; rat, plasma, po, 10 mg/kg) of the same molecule?
Answer: 6.6 min

Question: And the half-life ([1]; rat, plasma, po, 10 mg/kg, T2DM rats, i.g. 10 mg/kg SAX, two-compartment model with first order absorption, mean (n = 3), read-out: t1/2Ka (absorption phase half-life) (converted))?
Answer: 4.2 min

Question: What about the half-life ([1]; rat, plasma, po, 10 mg/kg, T2DM rats, i.g. 10 mg/kg SAX, two-compartment model with first order absorption, mean (n = 3), read-out: t1/2a (distribution phase half-life) (converted)) of the same molecule?
Answer: 4.8 min

Question: What about the half-life ([1]; rat, plasma, po, 10 mg/kg, T2DM rats, i.g. 10 mg/kg SAX, two-compartment model with first order absorption, mean (n = 3), read-out: t1/2β (elimination half-life) (converted)) of the same molecule?
Answer: 368 min

Question: And the AUC ([1]; rat, plasma, po, 10 mg/kg, read-out: AUC)?
Answer: 3280 ng·h/mL

Question: And the Cmax ([1]; rat, plasma, po, 10 mg/kg, read-out: Cmax)?
Answer: 2200 ng/mL

Question: What about the “blood glucose compared to the control group” value [2, 7] of the same molecule?
Answer: no significant differences

Question: And the “insulin compared to the control group” value [3, 7]?
Answer: no significant differences

Question: And the “Stability, autosampler at 4 °C for up to 16 h (% of nominal)” value (from here on “Stability, autosampler … (% of nominal)”) [4, 8]?
Answer: 98.05 ± 2.04%

Question: And the “Stability, autosampler … (% of nominal)” value [4, 9]?
Answer: 99.02 ± 2.00%

Question: What about the “Stability, 4 °C for 12 h (% of nominal)” value [4, 8] of the same molecule?
Answer: 99.09 ± 2.02%

Question: What about the “Stability, freeze-thaw three cycles (% of nominal)” value [4, 8] of the same molecule?
Answer: 95.84 ± 1.52%

Question: What about the “Stability, room temperature for 4 h (% of nominal)” value (“Stability … for 4 h (% of nominal)” below) [4, 8] of the same molecule?
Answer: 99.59 ± 3.47%

Question: And the “Stability, −80 °C for 7 days (% of nominal)” value [4, 8]?
Answer: 98.07 ± 2.07%

Question: What about the “Stability, 4 °C for 12 h (% of nominal)” value [4, 9] of the same molecule?
Answer: 100.60 ± 2.29%

Question: What about the “Stability, freeze-thaw three cycles (% of nominal)” value [4, 9] of the same molecule?
Answer: 96.71 ± 1.93%

Question: And the “Stability … for 4 h (% of nominal)” value [4, 9]?
Answer: 99.02 ± 2.02%

Question: What about the “Stability, −80 °C for 7 days (% of nominal)” value [4, 9] of the same molecule?
Answer: 98.56 ± 2.14%

Question: And the “stability in plasma under storage conditions” value [4]?
Answer: remained stable

Question: And the “share of the dose metabolized in the liver by CYP3A4/5 to 5-OH SAX” value [5]?
Answer: about 50%

Question: And the bioavailability ([5]; oral 5 mg SAX)?
Answer: 75%

Question: Which “AUC, individual rats” value [1, 10] does the source give for `N#C[C@@H]1C[C@@H]2C[C@@H]2N1C(=O)[C@@H](N)C12CC3CC(O)(CC(O)(C3)C1)C2` [5-OH SAX, 5-hydroxy Saxagliptin] here?
Answer: 691.49 ng·h/mL and 452.17 ng·h/mL and 611.48 ng·h/mL

Question: And the “Cl2, individual rats” value [1, 10]?
Answer: 8.2463 mL/min/kg and 8.554 mL/min/kg and 6.7797 mL/min/kg

Question: And the “Cl, individual rats” value [1, 10]?
Answer: 12.051 mL/min/kg and 18.4298 mL/min/kg and 13.628 mL/min/kg

Question: What about the “K12, individual rats” value [1, 10] of the same molecule?
Answer: 4.85 h⁻¹ and 2.93 h⁻¹ and 2.76 h⁻¹

Question: And the “K21, individual rats” value [1, 10]?
Answer: 3.41 h⁻¹ and 3.53 h⁻¹ and 3.31 h⁻¹

Question: And the “V2, individual rats” value [1, 10]?
Answer: 0.14522 L/kg and 0.14545 L/kg and 0.12277 L/kg

Question: What about the “V, individual rats” value [1, 10] of the same molecule?
Answer: 0.10199 L/kg and 0.17509 L/kg and 0.14739 L/kg

Question: What about the “t1/2a, individual rats” value [1, 10] of the same molecule?
Answer: 3 min and 3.6 min and 4.2 min

Question: And the “t1/2β, individual rats” value [1, 10]?
Answer: 23.4 min and 19.8 min and 22.2 min

Question: And the “C5ohsax, observed plasma concentration” value ([1]; T2DM rats, i.v. 0.5 mg/kg 5-OH SAX, nominal time 0.08 h, 0.5 mg/kg)?
Answer: 1610.00 ng/mL and 1240.00 ng/mL

Question: What about the “C5ohsax, observed plasma concentration” value ([1]; T2DM rats, i.v. 0.5 mg/kg 5-OH SAX, nominal time 0.17 h, 0.5 mg/kg) of the same molecule?
Answer: 972.00 ng/mL and 684.00 ng/mL and 900.00 ng/mL

Question: What about the “C5ohsax, observed plasma concentration” value ([1]; T2DM rats, i.v. 0.5 mg/kg 5-OH SAX, nominal time 0.25 h, 0.5 mg/kg) of the same molecule?
Answer: 595.00 ng/mL and 387.00 ng/mL and 550.00 ng/mL

Question: And the “C5ohsax, observed plasma concentration” value ([1]; T2DM rats, i.v. 0.5 mg/kg 5-OH SAX, nominal time 0.50 h, 0.5 mg/kg)?
Answer: 295.00 ng/mL and 192.00 ng/mL and 235.00 ng/mL

Question: What about the “C5ohsax, observed plasma concentration” value ([1]; T2DM rats, i.v. 0.5 mg/kg 5-OH SAX, nominal time 0.75 h, 0.5 mg/kg) of the same molecule?
Answer: 150.00 ng/mL and 91.70 ng/mL and 149.00 ng/mL

Question: What about the “C5ohsax, observed plasma concentration” value ([1]; T2DM rats, i.v. 0.5 mg/kg 5-OH SAX, nominal time 2.00 h, 0.5 mg/kg) of the same molecule?
Answer: 20.60 ng/mL and 8.16 ng/mL and 11.60 ng/mL

Question: And the AUC [1, 11]?
Answer: 585.04 ng·h/mL

Question: And the “CL2 (clearance rate of peripheral compartment)” value [1, 11]?
Answer: 7.86 mL/min/kg

Question: And the “CL (clearance rate of central compartment)” value [1, 11]?
Answer: 14.703 mL/min/kg

Question: What about the Cmax [1, 11] of the same molecule?
Answer: 3716.88 ng/mL

Question: And the K12 [1, 11]?
Answer: 3.51 h⁻¹

Question: And the K21 [1, 11]?
Answer: 3.42 h⁻¹

Question: What about the “V2 (apparent distribution volume of peripheral compartment)” value [1, 11] of the same molecule?
Answer: 0.13781 L/kg

Question: What about the “V (apparent distribution volume of central compartment)” value [1, 11] of the same molecule?
Answer: 0.14149 L/kg

Question: And the “t1/2a (distribution phase half-life)” value [1, 11]?
Answer: 3.6 min

Question: And the “t1/2β (elimination half-life)” value [1, 11]?
Answer: 21.6 min

Question: What about the “blood glucose compared to the control group” value ([2]; tail vein 0.5 mg/kg 5-OH SAX vs saline, 0.08, 0.17, 0.25 and 0.5 h (P<0.05)) of the same molecule?
Answer: significant differences

Question: And the “insulin compared to the control group” value ([3]; tail vein 0.5 mg/kg 5-OH SAX vs saline, within the sampling range)?
Answer: no significant differences

Question: And the “Stability, autosampler … (% of nominal)” value [4, 8]?
Answer: 101.22 ± 2.47%

Question: And the “Stability, autosampler … (% of nominal)” value [4, 9]?
Answer: 100.44 ± 3.10%

Question: And the “Stability, 4 °C for 12 h (% of nominal)” value [4, 8]?
Answer: 99.32 ± 2.66%

Question: What about the “Stability, freeze-thaw three cycles (% of nominal)” value [4, 8] of the same molecule?
Answer: 95.79 ± 2.16%

Question: And the “Stability … for 4 h (% of nominal)” value [4, 8]?
Answer: 98.51 ± 2.19%

Question: And the “Stability, −80 °C for 7 days (% of nominal)” value [4, 8]?
Answer: 97.49 ± 2.52%

Question: What about the “Stability, 4 °C for 12 h (% of nominal)” value [4, 9] of the same molecule?
Answer: 100.67 ± 2.52%

Question: And the “Stability, freeze-thaw three cycles (% of nominal)” value [4, 9]?
Answer: 94.89 ± 2.91%

Question: And the “Stability … for 4 h (% of nominal)” value [4, 9]?
Answer: 99.78 ± 2.22%

Question: And the “Stability, −80 °C for 7 days (% of nominal)” value [4, 9]?
Answer: 95.11 ± 4.55%

Question: And the “stability in plasma under storage conditions” value [4]?
Answer: remained stable

Question: What about the “systemic exposure in plasma relative to the parent drug SAX” value ([5]; after SAX) of the same molecule?
Answer: about 3 times
